# What was measured:
# Assay type in all cases: in vivo
# [1] = test system: Abutilon theophrasti (ABUTH); assay: Pre-emergence herbicidal action against Abutilon theophrasti; details: 1280 g/ha; scored visually after about 3 weeks vs untreated controls; 100% = plants have died, 0% = like control plants
# Excerpt: (§1) Seeds of mono- and dicotyledonous weed plants were placed in plastic pots in sandy loam soil (doubly sown with in each case one species of mono- or dicotyledonous weed plants per pot) and covered with soil. The compounds of the invention, formulated in the form of wettable powders (WP) or as emulsion concentrates (EC), were then applied onto the surface of the covering soil as aqueous suspension or emulsion with addition of 0.5% additive at a water application rate of 600 liters per hectare (converted). After the treatment, the pots were placed in a greenhouse and kept under good growth conditions for the test plants. After about 3 weeks, the effect of the preparations was scored visually in comparison with untreated controls as percentages. For example, 100% activity=the plants have died, 0% activity=like control plants. Tables C1 to C8 below show the effects of selected compounds of the general formula (I) according to Table 1 on various harmful plants and an application rate corresponding to 1280 g/ha, which were obtained by the experimental procedure mentioned above.
# [2] = test system: Setaria viridis (SETVI); assay: Pre-emergence herbicidal action against Setaria viridis; details: 1280 g/ha; scored visually after about 3 weeks vs untreated controls; 100% = plants have died, 0% = like control plants
# Excerpt: as §1
# [3] = test system: Stellaria media (STEME); assay: Pre-emergence herbicidal action against Stellaria media; details: 1280 g/ha; scored visually after about 3 weeks vs untreated controls; 100% = plants have died, 0% = like control plants
# Excerpt: as §1
# [4] = test system: Matricaria inodora (MATIN); assay: Pre-emergence herbicidal action against Matricaria inodora; details: 1280 g/ha; scored visually after about 3 weeks vs untreated controls; 100% = plants have died, 0% = like control plants
# Excerpt: as §1
# [5] = test system: Echinochloa crus-galli (ECHCG); assay: Pre-emergence herbicidal action against Echinochloa crus-galli; details: 1280 g/ha; scored visually after about 3 weeks vs untreated controls; 100% = plants have died, 0% = like control plants
# Excerpt: as §1
# [6] = test system: Amaranthus retroflexus (AMARE); assay: Pre-emergence herbicidal action against Amaranthus retroflexus; details: 1280 g/ha; scored visually after about 3 weeks vs untreated controls; 100% = plants have died, 0% = like control plants
# Excerpt: as §1
# [7] = test system: Poa annua (POAAN); assay: Pre-emergence herbicidal action against Poa annua; details: 1280 g/ha; scored visually after about 3 weeks vs untreated controls; 100% = plants have died, 0% = like control plants
# Excerpt: as §1
# [8] = test system: Lolium rigidum (LOLRI); assay: Pre-emergence herbicidal action against Lolium rigidum; details: 1280 g/ha; scored visually after about 3 weeks vs untreated controls; 100% = plants have died, 0% = like control plants
# Excerpt: as §1
# [9] = test system: Amaranthus retroflexus (AMARE); assay: Post-emergence herbicidal action against Amaranthus retroflexus; details: 1280 g/ha; rated visually after about 3 weeks vs untreated controls; 100% = plants have died, 0% = like control plants
# Experimental: (§2) Seeds of mono- and dicotyledonous weed plants were placed in plastic pots in sandy loam soil (doubly sown with in each case one species of mono- or dicotyledonous weed plants per pot), covered with soil and cultivated in a greenhouse under controlled growth conditions. 2 to 3 weeks after sowing, the test plants were treated at the one-leaf stage. The compounds of the invention, formulated in the form of wettable powders (WP) or as emulsion concentrates (EC), were applied onto the green parts of the plants as aqueous suspension or emulsion with addition of 0.5% additive at a water application rate of 600 liters per hectare (converted). After the test plants had been kept in the greenhouse under optimum growth conditions for about 3 weeks, the activity of the preparations was rated visually in comparison to untreated controls. For example, 100% activity=the plants have died, 0% activity=like control plants. Tables B1 to B8 below show the effects of selected compounds of the general formula (I) according to Table 1 on various harmful plants and an application rate corresponding to 1280 g/ha, which were obtained by the experimental procedure mentioned above.
# [10] = test system: Poa annua (POAAN); assay: Post-emergence herbicidal action against Poa annua; details: 1280 g/ha; rated visually after about 3 weeks vs untreated controls; 100% = plants have died, 0% = like control plants
# Experimental: as §2
Structure (SMILES),Pre-emergence action against Abutilon theophrasti (ABUTH) [1] [%],Pre-emergence action against Setaria viridis (SETVI) [2] [%],Pre-emergence action against Stellaria media (STEME) [3] [%],Pre-emergence action against Matricaria inodora (MATIN) [4] [%],Pre-emergence action against Echinochloa crus-galli (ECHCG) [5] [%],Pre-emergence action against Amaranthus retroflexus (AMARE) [6] [%],Pre-emergence action against Poa annua (POAAN) [7] [%],Pre-emergence action against Lolium rigidum (LOLRI) [8] [%],Post-emergence action against Amaranthus retroflexus (AMARE) [9] [%],Post-emergence action against Poa annua (POAAN) [10] [%]
COc1cc(Oc2ccc(C)nc2Oc2ncccn2)ccc1F [Example I-531],100,100,100,100,90,100,100,–,–,–
COc1cc(Oc2ccc(C)nc2Oc2ncc(Cl)cn2)ccc1F [Example I-509],100,90,100,100,–,100,100,90,100,–
Cc1ccc(Oc2ccc(Cl)cc2)c(Oc2ncc(C(F)(F)F)cn2)n1 [Example I-534],–,90,100,90,–,90,–,100,–,–
COc1cc(Cc2ccc(C)nc2Oc2ncccn2)ccc1F [Example I-450],100,100,100,100,90,90,100,90,90,–
Cc1ccc(Cc2ccc(C)nc2Oc2ncc(Cl)cn2)cc1 [Example I-405],–,100,100,–,–,100,–,–,–,–
Cc1ccc(Cc2ccc(C)nc2Oc2ncccn2)cc1 [Example I-449],–,–,100,–,–,–,90,–,–,–
"Cc1ccc(Oc2ccccc2)c(Oc2ncc(C(F)(F)F)cn2)n1 [Example I-533, 2-[(6-Methyl-3-phenoxy-2-pyridyl)oxy]-5-(trifluoromethyl)pyrimidine]",–,90,100,–,90,–,90,–,–,100
Fc1ccc(Sc2cccnc2Oc2ncc(F)cn2)cc1 [Example I-154],–,100,100,100,–,100,100,–,100,–
Cc1ccc(Oc2ccc(Cl)cc2)c(Oc2ncccn2)n1 [Example I-526],100,100,100,100,100,100,100,–,–,100
COc1cc(Cc2ccc(C)nc2Oc2ncc(C(F)(F)F)cn2)ccc1F [Example I-465],–,90,90,–,–,100,100,90,90,–

# Source: US11834434B2, “Substituted 2-heteroaryloxypyridines and salts thereof and their use as herbicidal agents” (Bayer Aktiengesellschaft, priority 2018, dated 2023)
